These results are taken from BindingDB's records for doi:10.1016/S1074-5521(01)00067-9 (University of California San Francisco, 2001).

Common to all, as to assay: Inhibition Assay
The target in test [1] is T1, Thymidylate synthase (Lacticaseibacillus casei, UniProt P00469).
T1 sequence (P00469 whole entry): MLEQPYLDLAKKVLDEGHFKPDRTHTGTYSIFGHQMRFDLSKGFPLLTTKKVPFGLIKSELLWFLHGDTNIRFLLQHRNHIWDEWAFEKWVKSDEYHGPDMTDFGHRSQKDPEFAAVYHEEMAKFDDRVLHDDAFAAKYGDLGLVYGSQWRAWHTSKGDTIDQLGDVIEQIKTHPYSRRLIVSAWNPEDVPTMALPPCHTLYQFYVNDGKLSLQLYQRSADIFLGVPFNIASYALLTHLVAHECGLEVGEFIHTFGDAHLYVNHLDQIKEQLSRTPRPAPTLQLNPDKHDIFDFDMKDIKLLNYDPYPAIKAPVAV
The text has this: (§1) Affinity assay of specificities of thymidylate synthase (TS)inhibitors

Test [2] has as its target Thymidylate synthase (Homo sapiens, UniProt P04818).
From the text: as §1

Test [3] has as its target Thymidylate synthase (Escherichia coli (strain K12), UniProt P0A884).
From the text: as §1

Some results are limits rather than exact numbers.

Sequence of Thymidylate synthase (Escherichia coli (strain K12), UniProt P0A884) (P0A884 whole entry): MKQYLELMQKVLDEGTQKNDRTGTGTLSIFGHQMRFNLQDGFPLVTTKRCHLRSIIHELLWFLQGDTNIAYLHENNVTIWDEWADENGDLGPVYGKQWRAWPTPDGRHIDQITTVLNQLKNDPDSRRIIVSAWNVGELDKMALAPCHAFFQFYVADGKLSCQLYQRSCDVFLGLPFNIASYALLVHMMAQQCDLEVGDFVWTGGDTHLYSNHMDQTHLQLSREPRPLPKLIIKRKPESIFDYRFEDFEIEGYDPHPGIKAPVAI
Sequence of Thymidylate synthase (Homo sapiens, UniProt P04818) (P04818 whole entry): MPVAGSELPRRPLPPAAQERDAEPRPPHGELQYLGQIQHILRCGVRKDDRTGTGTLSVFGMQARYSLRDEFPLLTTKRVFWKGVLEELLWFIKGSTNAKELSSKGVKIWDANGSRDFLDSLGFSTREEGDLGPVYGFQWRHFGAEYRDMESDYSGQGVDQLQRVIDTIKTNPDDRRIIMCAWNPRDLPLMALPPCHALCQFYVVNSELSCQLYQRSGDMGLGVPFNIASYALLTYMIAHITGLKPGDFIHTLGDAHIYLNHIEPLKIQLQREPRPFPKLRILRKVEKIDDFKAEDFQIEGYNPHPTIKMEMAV

In general, IC50 refers to the midpoint of a concentration-inhibition curve. A low value points to greater potency. `CCCCN(CCCC)c1cccc2c(S(=O)(=O)Oc3ccc(CC(N)C(=O)O)cc3)cccc12` (centres undefined) showed an IC50 against Thymidylate synthase [1] of 53 µM.
For `CN(C)c1cccc2c(S(=O)(=O)NN)cccc12` [5-(dimethylamino)naphthalene-1-sulfonohydrazide], the IC50 at Thymidylate synthase [2] turned out to be 36 µM; against Thymidylate synthase [3], 1.11 mM; against Thymidylate synthase [1] it was 458 µM.
With `NC(Cc1ccc(OC(=O)c2ccc3ccccc3c2)cc1)C(=O)O` (centres undefined) [2-naphthylcarbonyl], on Thymidylate synthase [1], the IC50 was determined as 70 µM.
Same read-out and setting: the result for `CN(C)c1ccc(/N=N\c2ccc(S(=O)(=O)Oc3ccc(CC(N)C(=O)O)cc3)cc2)cc1` (centres undefined) [4'-(dimethylamino)azobenzene-4-sulfonyl] reads over 100 µM.
Consider `CN(C)c1cccc2c(S(=O)(=O)Oc3ccc(CC(N)C(=O)O)cc3)cccc12` [Dansyl derivatives 1A, (S) isomer], for which the IC50 against Thymidylate synthase [2] amounted to 771 µM; against Thymidylate synthase [3] it was 1.17 mM.
Take `NC(Cc1ccc(OS(=O)(=O)c2ccc3ccccc3c2)cc1)C(=O)O` (centres undefined) [2-naphthylsulfonyl]: it took 4.7 µM to reach half-maximal inhibition against Thymidylate synthase [1] (IC50). That is a single-digit micromolar value.
